One series is filed under the species Homo sapiens. Nature of the series: Induction of plasma citrulline level in human. The format is functional.
Series [1] is described as follows: Half life in human. The series is classed as ADME.
Series [2] in a line: Half life in human at 15 mg, sc qd measured on day 8 by liquid chromatography/tandem mass spectrometry method. The series is classed as ADME, organism-based. Conditions: in vivo.
Series [3] concerns the target T1, Glucagon-like peptide 2 receptor (Homo sapiens, UniProt O95838).
T1 sequence (O95838 whole entry): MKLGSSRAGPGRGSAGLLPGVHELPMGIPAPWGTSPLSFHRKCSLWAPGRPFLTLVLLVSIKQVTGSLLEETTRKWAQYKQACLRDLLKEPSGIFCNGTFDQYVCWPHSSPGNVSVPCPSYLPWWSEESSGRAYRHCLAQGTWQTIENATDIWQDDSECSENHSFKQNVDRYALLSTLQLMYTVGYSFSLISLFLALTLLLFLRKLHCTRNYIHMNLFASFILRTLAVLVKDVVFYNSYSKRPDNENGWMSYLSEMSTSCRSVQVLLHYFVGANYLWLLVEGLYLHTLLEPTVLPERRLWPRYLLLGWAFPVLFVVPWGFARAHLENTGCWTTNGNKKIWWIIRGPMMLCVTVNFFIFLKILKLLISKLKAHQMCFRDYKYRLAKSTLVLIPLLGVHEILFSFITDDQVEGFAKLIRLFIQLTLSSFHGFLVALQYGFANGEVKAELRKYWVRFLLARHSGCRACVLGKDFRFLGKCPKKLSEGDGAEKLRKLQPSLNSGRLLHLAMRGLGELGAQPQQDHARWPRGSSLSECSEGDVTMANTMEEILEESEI
Nature of the series: Agonist activity at human GLP-2 receptor expressed in CHO-K1 cells assessed as cAMP induction by FRET assay. The format is functional, cell-based.

Series [4] in a line: Half life in C57BL/6J mouse at 800 nmol/kg, sc measured up to 24 hrs by LC-MS/MS analysis. The series is classed as ADME, organism-based. Conditions: in vivo.
Series [5] has as its target Glucagon-like peptide 1 receptor (Homo sapiens, UniProt P43220). In words: Agonist activity at human GLP-1 receptor expressed in CHO-K1 cells assessed as cAMP induction by FRET assay. The format is functional, cell-based.
Series [6] is described as follows: Half-life in Yucatan mini-pig at 0.15 mg, sc. The series is classed as ADME, Sus scrofa domesticus. Conditions: in vivo.
A short description of series [7]: Clearance in Sprague-Dawley rat at 0.2 mg/kg, iv. The format is ADME, organism-based. Conditions: in vivo.
Series [8] in a line: Terminal half life in cynomolgus monkey at 0.25 mg/kg, sc. The format is ADME, organism-based, Macaca fascicularis. Conditions: in vivo, read-out: beta t1/2.
Series [9] can be described thus: Half life in human plasma at 0.5 mg for 4 weeks followed by 0.5 mg for 4 weeks and subsequently 1 mg for weeks administered subcutaneously once weekly and measured up to 840 hrs post last dose by LC-MS/MS analysis. The format is ADME. Conditions: sc.
The nature of series [10]: Half life in human plasma. The format is ADME, cell-free.

The record followed here is ChEMBL document CHEMBL4376821, “Recent Developments in Therapeutic Peptides for the Glucagon-like Peptide 1 and 2 Receptors” (J Med Chem, 2020).

Non-standard residues stand in square brackets, D forms with d. Residues, ends and D or L forms follow the SMILES beside them. *: point of attachment. Palmitoyl = CCCCCCCCCCCCCCCC(=O)*; Nle = CCCC[C@H](N)C(=O)O

As a reminder, the EC50 is the concentration needed to bring the measured effect to its halfway point. As a reminder, the clearance is a measure of how efficiently the substance is removed, as volume per time.

Chain of Glucagon-like peptide 1 receptor (P43220 whole entry): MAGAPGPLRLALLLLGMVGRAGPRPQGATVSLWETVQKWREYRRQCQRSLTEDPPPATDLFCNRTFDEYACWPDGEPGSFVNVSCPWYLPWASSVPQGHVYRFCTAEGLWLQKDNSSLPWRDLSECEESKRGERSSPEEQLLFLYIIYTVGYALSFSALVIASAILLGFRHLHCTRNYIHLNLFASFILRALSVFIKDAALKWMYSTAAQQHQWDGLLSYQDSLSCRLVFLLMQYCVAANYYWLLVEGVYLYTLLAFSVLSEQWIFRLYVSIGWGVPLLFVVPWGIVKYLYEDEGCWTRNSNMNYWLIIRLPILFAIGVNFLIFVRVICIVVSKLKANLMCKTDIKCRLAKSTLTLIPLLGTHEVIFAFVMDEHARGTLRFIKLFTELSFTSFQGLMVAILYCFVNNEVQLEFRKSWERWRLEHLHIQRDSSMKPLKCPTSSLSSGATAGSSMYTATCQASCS

With “H-HGEGTFSSELATILDALAARDFIAWLIATKITDKKKKKK-NH2”, the Activity entry in the series listed under Homo sapiens is on record as “<=86%”. In series [1], the half-life was 50 h.

With `CC[C@H](C)[C@H](NC(=O)[C@H](Cc1ccccc1)NC(=O)[C@H](CC(=O)O)NC(=O)[C@H](CCCNC(=N)N)NC(=O)[C@H](C)NC(=O)[C@H](C)NC(=O)[C@H](CC(C)C)NC(=O)[C@H](CC(N)=O)NC(=O)[C@H](CC(=O)O)NC(=O)[C@H](CC(C)C)NC(=O)[C@@H](NC(=O)[C@@H](NC(=O)[C@H](CC(N)=O)NC(=O)[C@H](CCSC)NC(=O)[C@H](CCC(=O)O)NC(=O)[C@H](CC(=O)O)NC(=O)[C@H](CO)NC(=O)[C@H](Cc1ccccc1)NC(=O)[C@H](CO)NC(=O)CNC(=O)[C@H](CC(=O)O)NC(=O)CNC(=O)[C@@H](N)Cc1c[nH]cn1)[C@@H](C)O)[C@@H](C)CC)C(=O)N[C@@H](CC(N)=O)C(=O)N[C@@H](Cc1c[nH]c2ccccc12)C(=O)N[C@@H](CC(C)C)C(=O)N[C@H](C(=O)N[C@@H](CCC(N)=O)C(=O)N[C@H](C(=O)N[C@@H](CCCCN)C(=O)N[C@H](C(=O)N[C@H](C(=O)N[C@@H](CC(=O)O)C(=O)O)[C@@H](C)O)[C@@H](C)CC)[C@@H](C)O)[C@@H](C)CC` [TEDUGLUTIDE], in series [2], the half-life was 2 h.

For H-HGDGSFTSELSTYLDALAARDFIAWLIQTKITD-NH2, the EC50 in series [3] is 0.09 nM; in series [5], 0.07 nM. In series [4], this molecule had a half-life of 0.9 h.

On to `CCCC[C@H](NC(=O)[C@H](CCC(=O)O)NC(=O)[C@H](CC(=O)O)NC(=O)[C@H](CO)NC(=O)[C@H](Cc1ccccc1)NC(=O)[C@H](CO)NC(=O)CNC(=O)[C@H](CC(=O)O)NC(=O)CNC(=O)[C@@H](N)Cc1cnc[nH]1)C(=O)N[C@H](Cc1ccccc1)C(=O)N[C@H](C(=O)N[C@H](C(=O)N[C@@H](CC(C)C)C(=O)N[C@@H](CC(=O)O)C(=O)N[C@@H](CC(C)C)C(=O)N[C@@H](CC(C)C)C(=O)N[C@@H](C)C(=O)N[C@@H](C)C(=O)N[C@@H](CCCNC(=N)N)C(=O)N[C@@H](CC(=O)O)C(=O)N[C@@H](Cc1ccccc1)C(=O)N[C@H](C(=O)N[C@@H](CC(N)=O)C(=O)N[C@@H](Cc1c[nH]c2ccccc12)C(=O)N[C@@H](CC(C)C)C(=O)N[C@H](C(=O)N[C@@H](CCC(N)=O)C(=O)N[C@H](C(=O)N[C@@H](CCCCN)C(=O)N[C@H](C(=O)N[C@H](C(=O)N[C@@H](CC(=O)O)C(N)=O)[C@@H](C)O)[C@@H](C)CC)[C@@H](C)O)[C@@H](C)CC)[C@@H](C)CC)[C@@H](C)CC)[C@@H](C)O` [FE 203799] (H-HGDGSFSDE[Nle][dF]TILDLLAARDFINWLIQTKITD-NH2), for which the half-life in series [6] and in [8] was > 30 h each time. The clearance in [7] is < 0.3 mL/min/kg.

In [9], SEMAGLUTIDE displayed a t1/2 of 165 h.

With `CCCCCCCCCCCCCCCC(=O)NCCCC[C@H](NC(=O)[C@H](Cc1ccc(O)cc1)NC(=O)[C@@H](NC(=O)[C@H](CO)NC(=O)[C@H](CC(C)C)NC(=O)[C@H](CCC(=O)O)NC(=O)[C@H](CO)NC(=O)[C@@H](NC(=O)[C@H](Cc1ccccc1)NC(=O)[C@H](CO)NC(=O)CNC(=O)[C@H](CC(=O)O)NC(=O)CNC(=O)[C@@H](N)Cc1cnc[nH]1)[C@@H](C)O)[C@@H](C)O)C(=O)N[C@@H](CC(=O)O)C(=O)N[C@@H](C)C(=O)N[C@@H](CC(C)C)C(=O)N[C@@H](C)C(=O)N[C@@H](C)C(=O)N[C@@H](CCCNC(=N)N)C(=O)N[C@@H](CC(=O)O)C(=O)N[C@@H](Cc1ccccc1)C(=O)N[C@H](C(=O)N[C@@H](C)C(=O)N[C@@H](Cc1c[nH]c2ccccc12)C(=O)N[C@@H](CC(C)C)C(=O)N[C@H](C(=O)N[C@@H](CCC(N)=O)C(=O)N[C@H](C(=O)N[C@@H](CCCCN)C(=O)N[C@H](C(=O)N[C@H](C(=O)N[C@@H](CC(=O)O)C(N)=O)[C@@H](C)O)[C@@H](C)CC)[C@@H](C)O)[C@@H](C)CC)[C@@H](C)CC` (H-HGDGSFTSELSTYK(Palmitoyl)DALAARDFIAWLIQTKITD-NH2), the EC50 stood at 1 nM in series [3] and 0.17 nM in series [5]. This molecule had a half-life in series [4] of 2.7 h.

Turning to `CC[C@H](C)[C@H](NC(=O)[C@H](Cc1ccccc1)NC(=O)[C@H](CCC(=O)O)NC(=O)[C@H](CCCCN)NC(=O)[C@H](C)NC(=O)[C@H](C)NC(=O)[C@H](CCC(N)=O)NC(=O)CNC(=O)[C@H](CCC(=O)O)NC(=O)[C@H](CC(C)C)NC(=O)[C@H](Cc1ccc(O)cc1)NC(=O)[C@H](CO)NC(=O)[C@H](CO)NC(=O)[C@@H](NC(=O)[C@H](CC(=O)O)NC(=O)[C@H](CO)NC(=O)[C@@H](NC(=O)[C@H](Cc1ccccc1)NC(=O)[C@@H](NC(=O)CNC(=O)[C@H](CCC(=O)O)NC(=O)[C@H](C)NC(=O)[C@@H](N)Cc1cnc[nH]1)[C@@H](C)O)[C@@H](C)O)C(C)C)C(=O)N[C@@H](C)C(=O)N[C@@H](Cc1c[nH]c2ccccc12)C(=O)N[C@@H](CC(C)C)C(=O)N[C@H](C(=O)N[C@@H](CCCCN)C(=O)NCC(=O)N[C@@H](CCCNC(=N)N)C(=O)O)C(C)C`, the half-life in series [10] was < 2 min.
